Source: ChEMBL document CHEMBL1201862, “PubChem BioAssay data set” (2004)
Blank lines part the entries; values can stand above or below the molecule they belong to. Active and inactive are the calls of the source.

What was measured:
[1] = target: T1, Rac GTPase-activating protein 1 (Homo sapiens, UniProt Q9H0H5); assay: MgcRacGAP GTPase-activating activity inhibitors, confirmation, biochemical, ADP Hunter fluorescence, primary and confirmatory (AID 624330); assay type: functional
T1 sequence (Q9H0H5 whole entry): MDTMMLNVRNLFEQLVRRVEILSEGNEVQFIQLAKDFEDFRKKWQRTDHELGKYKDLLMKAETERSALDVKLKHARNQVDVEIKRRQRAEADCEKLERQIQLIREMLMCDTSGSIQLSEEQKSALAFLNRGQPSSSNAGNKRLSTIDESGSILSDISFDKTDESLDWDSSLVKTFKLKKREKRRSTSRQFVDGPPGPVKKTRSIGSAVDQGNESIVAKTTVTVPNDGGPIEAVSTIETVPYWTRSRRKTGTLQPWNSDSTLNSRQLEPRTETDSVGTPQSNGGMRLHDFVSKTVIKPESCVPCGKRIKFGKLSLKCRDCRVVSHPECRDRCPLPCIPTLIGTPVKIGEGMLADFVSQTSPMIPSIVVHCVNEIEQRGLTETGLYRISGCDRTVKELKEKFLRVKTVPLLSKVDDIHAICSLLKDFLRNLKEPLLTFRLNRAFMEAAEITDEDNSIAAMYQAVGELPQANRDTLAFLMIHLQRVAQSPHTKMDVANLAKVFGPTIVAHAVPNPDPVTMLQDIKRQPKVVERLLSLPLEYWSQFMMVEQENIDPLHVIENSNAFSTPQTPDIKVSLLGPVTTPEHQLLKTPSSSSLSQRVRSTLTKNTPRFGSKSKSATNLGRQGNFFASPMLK

[2] = target: T2, Phosphomannomutase 2 (Homo sapiens, UniProt O15305); assay: Counter screen SAR assay for PMM2 inhibitors via a fluorescence intensity assay. [Related pubchem assays (depositor defined):AID1545, AID1574]
T2 sequence (O15305 whole entry): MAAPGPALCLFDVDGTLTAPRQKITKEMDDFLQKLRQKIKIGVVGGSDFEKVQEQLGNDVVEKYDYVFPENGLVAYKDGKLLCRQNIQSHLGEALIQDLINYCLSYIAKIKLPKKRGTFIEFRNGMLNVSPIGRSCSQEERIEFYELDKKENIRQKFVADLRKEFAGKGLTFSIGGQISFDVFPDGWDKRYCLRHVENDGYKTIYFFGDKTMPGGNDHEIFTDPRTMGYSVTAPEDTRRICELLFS

[3] = target: T3, Alkaline phosphatase, tissue-nonspecific isozyme (Homo sapiens, UniProt P05186); assay: human TNAP enzyme inhibitors, SAR follow-up, biochemical, luminescent, dose response (AID 1056)
T3 sequence (P05186 whole entry): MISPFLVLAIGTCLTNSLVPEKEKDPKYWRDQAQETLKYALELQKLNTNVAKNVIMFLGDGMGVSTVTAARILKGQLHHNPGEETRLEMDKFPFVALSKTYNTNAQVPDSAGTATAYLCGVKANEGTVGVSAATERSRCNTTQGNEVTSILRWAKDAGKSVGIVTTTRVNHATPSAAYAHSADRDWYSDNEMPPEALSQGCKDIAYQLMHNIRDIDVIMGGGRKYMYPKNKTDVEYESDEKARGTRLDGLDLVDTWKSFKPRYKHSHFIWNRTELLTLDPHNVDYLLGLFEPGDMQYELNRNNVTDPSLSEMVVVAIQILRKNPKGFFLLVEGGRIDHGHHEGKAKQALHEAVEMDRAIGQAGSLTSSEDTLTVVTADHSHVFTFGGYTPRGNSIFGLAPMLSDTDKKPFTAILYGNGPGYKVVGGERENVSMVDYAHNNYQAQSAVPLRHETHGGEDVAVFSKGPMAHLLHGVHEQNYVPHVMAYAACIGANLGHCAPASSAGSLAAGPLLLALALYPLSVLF

[4] = HeLa cell cytotoxicity, dose response, cytotoxicity control for MgcRacGAP inhibitor project (AID 624300); assay type: functional
[5] = target: Phosphoethanolamine/phosphocholine phosphatase (Homo sapiens, UniProt Q8TCT1); assay: SAR assay for compounds that inhibit PHOSPHO1. [Related pubchem assays (depositor defined):AID1545, AID1565, AID1574]
Chain of Phosphoethanolamine/phosphocholine phosphatase (Q8TCT1 whole entry): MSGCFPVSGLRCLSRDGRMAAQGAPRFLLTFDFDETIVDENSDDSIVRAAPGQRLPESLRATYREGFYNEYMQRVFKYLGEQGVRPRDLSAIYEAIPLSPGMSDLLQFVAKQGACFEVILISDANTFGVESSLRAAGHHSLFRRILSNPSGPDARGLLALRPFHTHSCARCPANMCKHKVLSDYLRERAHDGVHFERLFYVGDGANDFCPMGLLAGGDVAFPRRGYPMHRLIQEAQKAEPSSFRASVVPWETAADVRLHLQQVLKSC

[6] = target: T4, Mannose-6-phosphate isomerase (Homo sapiens, UniProt P34949); assay: Confirmation of compounds inhibiting phosphomannose isomerase (PMI) via a fluorescence intensity assay using a high concentration of mannose 6-phosphate. [Related pubchem assays (depositor defined):AID1209, AID1220, AID1545, AID1553, AID1620]
T4 sequence (P34949 whole entry): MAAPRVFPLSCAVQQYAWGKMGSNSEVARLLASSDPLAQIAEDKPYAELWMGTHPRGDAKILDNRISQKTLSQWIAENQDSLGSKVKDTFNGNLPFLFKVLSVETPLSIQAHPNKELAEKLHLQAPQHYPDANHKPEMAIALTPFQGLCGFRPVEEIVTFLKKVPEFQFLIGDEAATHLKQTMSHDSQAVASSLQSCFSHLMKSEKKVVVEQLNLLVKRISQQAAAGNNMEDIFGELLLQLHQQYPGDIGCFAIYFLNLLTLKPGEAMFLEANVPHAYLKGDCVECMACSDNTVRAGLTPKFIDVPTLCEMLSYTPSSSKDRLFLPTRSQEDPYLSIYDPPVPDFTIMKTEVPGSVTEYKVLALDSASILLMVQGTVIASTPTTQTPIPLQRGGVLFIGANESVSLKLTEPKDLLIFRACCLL

[7] = target: T5, Caspase-3 (Homo sapiens, UniProt P42574); assay: procaspase-3 activation potency of dual hits, dose response, counter-screen for dual procaspase-3/7 activator project, biochemical, absorbance, PC-3 D3A mutant (AID 504328)
T5 sequence (P42574 whole entry): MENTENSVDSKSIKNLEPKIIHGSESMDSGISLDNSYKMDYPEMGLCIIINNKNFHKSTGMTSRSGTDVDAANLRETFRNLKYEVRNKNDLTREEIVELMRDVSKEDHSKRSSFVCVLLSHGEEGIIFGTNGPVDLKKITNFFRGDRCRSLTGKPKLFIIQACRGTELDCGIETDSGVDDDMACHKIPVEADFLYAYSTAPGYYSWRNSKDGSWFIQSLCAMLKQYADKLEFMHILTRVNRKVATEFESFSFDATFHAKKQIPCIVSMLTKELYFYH

[8] = HEp-2 cell cytotoxicity, dose response, cytotoxicity control for RSV inhibitor project, HTS (AID 2410); assay type: functional; settings: human respiratory syncytial virus
[9] = target: Caspase-7 (Homo sapiens, UniProt P55210); assay: procaspase-7 activators, dose response, dual procaspase-3/-7 activator project, biochemical, absorbance, human (AID 504330)
[10] = target: ORF 73 (Human herpesvirus 8, UniProt O40947); assay: inhibitors of C-LANA binding to LBS DNA, dose response, biochemical, fluorescence polarization, cherry-picked samples (AID 504725); set-up: species or system Human gammaherpesvirus 8;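 also: fluorescence polarization of a labeled DNA duplex reporting LANA DNA binding; potency is for inhibitors that block LANA binding to the DNA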
Chain of ORF 73 (O40947 whole entry): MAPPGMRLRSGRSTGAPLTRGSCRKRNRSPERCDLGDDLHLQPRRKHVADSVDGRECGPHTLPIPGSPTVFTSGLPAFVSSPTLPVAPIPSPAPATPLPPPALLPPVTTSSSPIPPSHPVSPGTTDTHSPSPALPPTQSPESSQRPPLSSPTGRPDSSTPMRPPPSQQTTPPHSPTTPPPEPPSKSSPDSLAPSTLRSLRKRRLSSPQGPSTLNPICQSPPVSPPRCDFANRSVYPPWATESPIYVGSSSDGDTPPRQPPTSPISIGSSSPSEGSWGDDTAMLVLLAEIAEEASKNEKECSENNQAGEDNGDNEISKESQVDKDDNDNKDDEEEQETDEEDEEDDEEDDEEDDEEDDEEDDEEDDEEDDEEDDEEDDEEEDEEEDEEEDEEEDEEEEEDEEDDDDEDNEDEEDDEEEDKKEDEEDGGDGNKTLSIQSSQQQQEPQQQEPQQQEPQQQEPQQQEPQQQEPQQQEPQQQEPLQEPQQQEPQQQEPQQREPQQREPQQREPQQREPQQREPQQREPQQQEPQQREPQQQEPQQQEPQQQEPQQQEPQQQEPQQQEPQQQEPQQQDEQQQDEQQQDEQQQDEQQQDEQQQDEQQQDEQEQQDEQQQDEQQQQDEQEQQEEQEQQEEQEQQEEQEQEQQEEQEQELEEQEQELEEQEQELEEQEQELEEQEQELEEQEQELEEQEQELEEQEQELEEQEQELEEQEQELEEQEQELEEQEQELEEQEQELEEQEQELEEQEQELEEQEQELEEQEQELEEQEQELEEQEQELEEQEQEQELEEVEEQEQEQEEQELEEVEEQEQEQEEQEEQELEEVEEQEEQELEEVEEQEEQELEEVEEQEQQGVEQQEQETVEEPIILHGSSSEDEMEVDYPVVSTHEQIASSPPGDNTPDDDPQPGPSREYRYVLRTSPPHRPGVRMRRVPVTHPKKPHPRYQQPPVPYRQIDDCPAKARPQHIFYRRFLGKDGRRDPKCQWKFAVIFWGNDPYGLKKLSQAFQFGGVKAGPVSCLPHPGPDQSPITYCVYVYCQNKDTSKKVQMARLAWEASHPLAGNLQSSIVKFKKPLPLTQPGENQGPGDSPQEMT

[11] = system: Salmon testes DNA; assay: DNA intercalators displacing acridine orange, dose response, artefact control for KSHV LANA DNA-binding inhibitor project, biochemical, fluorescence polarization, cherry-picked samples, set 2 (AID 504727); set-up: species or system Salmonidae

Structure (SMILES): COC(=O)c1cccc(-n2sc3ccccc3c2=O)c1
IC50 [1]: 36.9 µM (active)
IC50 [2]: 15.4 µM (active)
IC50 [3]: > 100 µM (inactive)
CC50 [4]: 100 µM (active)
IC50 [5]: 0.824 µM (active)
IC50 [6]: 14 µM (active)

EC50 [7]: > 85.3 µM (inactive)
EC50 [9]: > 85.3 µM (inactive)
Structure (SMILES): COc1cc2c(cc1OC)C(C)N(C(=O)c1cc3c(s1)-c1ccccc1OC3)CC2 (stereo unspecified)
CC50 [8]: 27.4 µM (active)

AC50 [10]: 20.1 µM (active)
Structure (SMILES): Cc1ccc(N(CC(=O)N2CCOCC2)S(C)(=O)=O)cc1
AC50 [11]: 70.1 µM (active)
